Key:
Format in all cases: in vivo
[1] = test system: Musca domestica, susceptible strain WHO(N); assay: Efficacy of formulations on surfaces (glazed/unglazed tiles), house flies, continuous exposure
Protocol: A flat fan nozzle (type SS 8003-E) in a spray cabin was moved automatically over a defined area where the solutions were sprayed very evenly onto the surfaces. The formulation was mixed with water to give a concentration which corresponded to the desired quantity of a.i./m^2. A defined quantity of this solution was sprayed onto the area (nominal 350 liter/ha=0.77 ml per surface).
(§1) All surfaces were provided with talcum-coated glass rings (diameter 9.5 cm, height 5.5 cm) one day later.
The test insects were anesthetized with CO2, 20 individuals were placed onto the treated surfaces and the glass ring was covered with wire gauze ring.
Knock down was determined after 15 and 30′, 1, 2, 4 and 6 hours, mortality after 1 day exposure.
(§2) Each test consisted of at least one replicate and any additional replicates are noted.
(§3) Test Insects: House flies (Musca domestica) of both sexes, susceptible strain WHO(N) and resistant strain Reichswald
(§4) Evaluation: Mortality was evaluated cumulatively at different times. […]
(§5) Test Insects: Culex quinquefasciatus (adults) (3 minutes exposure time according to USDA Petri Dish Method), Musca domestica (adults), susceptible and resistant strain, Blattella germanica (males), Cimex lectularius (adults) (all: continuous exposure time)
(§6) Application: The EC formulation (diluted with water 1:9) were applied as 0.85 ml solutions onto glazed tiles (15 cm×15 cm)
Evaluation: Knock down after 15, and 30 minutes, 1, 2, 3, 4, 6 and 24 hours (mortality)
Test Insects: Culex quinquefasciatus (adults, susceptible) (3 minutes exposure time according to USDA Petri Dish Method), Musca domestica (adults, susceptible and resistant), Blattella germanica (males, susceptible) (both: continuous exposure time)
Formulations: Insecticide with or without 10% Compound A (as EC), to be diluted with water (1 part formulation+9 parts water)
Evaluation: Knock down after 3, 9 (mosquitoes only), 15, and 30 minutes, 1, 2, 3, 4 and 24 hours (mortality) […]

[2] = test system: German cockroach (Blattella germanica); assay: Contact efficacy against cockroaches on filter papers in glass dishes
Text: The objective of this study was to evaluate differences between deltamethrin and imidacloprid with and without adjuvant against cockroaches. The method for determining contact efficacy against cockroaches was the same as that in Example 107.

[3] = test system: bedbug (Cimex lectularius), susceptible strain; assay: Contact efficacy against bedbugs on filter papers in glass dishes
Protocol: Adult Cimex lectularius, susceptible strain, were used. A solution of the active ingredient in acetone was prepared. In the same mode a complete […]. All these works were done under drawing off conditions. After evaporation of the acetone (30′) the dishes were closed by a glass lid and transferred into the test room.
One day later ten bedbugs, anaesthetized with CO2, were counted into each dish. At regular intervals, knock down was recorded (cumulatively).
The same methodology was used as was used in Example 105.

[4] = test system: Musca domestica, resistant strain Reichswald; assay: Efficacy of formulations on surfaces (glazed/unglazed tiles), house flies, continuous exposure
Protocol: as §1
The test insects were anesthetized with CO2, 20 individuals were placed onto the treated surfaces and the glass ring was covered with wire gauze ring. […]
as §2, §3, §4, §5, §6

[5] = test system: Red Imported Fire ant (RIFA), Solenopsis invicta; assay: Knockdown/mortality of ant workers under continuous exposure on treated glazed tile
Text: Treatments were allowed to dry overnight. […] Treatments were replicated minimum three times.
Treatments were allowed to dry overnight. […] Treatments were replicated a minimum of three times.

[6] = test system: susceptible/normal German cockroach (Monheim strain), Blattella germanica; assay: Knockdown/mortality of male cockroaches under continuous exposure on treated glazed tile
Outline: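 Male cockroaches continuously exposed on treated glazed tile, dried overnight before exposure; at least three replicates. Knockdown/mortality scored at intervals from 5 or 10 min, over runs lasting 20 min to 24 h depending on test.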

[7] = 0.001% deltamethrin in acetone on glazed tiles, with or without adjuvant
[8] = 0.00032% Deltamethrin in acetone
[9] = 0.0016% Deltamethrin in acetone
[10] = 0.0000128% Deltamethrin in acetone, first test
[11] = 0.0000128% Deltamethrin in acetone, second test
[12] = 0.000064% Deltamethrin in acetone, first test
[13] = 0.000064% Deltamethrin in acetone, second test
[14] = Table 114, 0.02% = 10 mg Ethiprole/m^2 on glazed tiles, EC formulation, continuous exposure
[15] = Table 115, 0.02% = 10 mg Ethiprole/m^2 on glazed tiles, EC formulation, continuous exposure

CC1(C)[C@H](C(=O)O[C@H](C#N)c2cccc(Oc3ccccc3)c2)[C@@H]1C=C(Br)Br [deltamethrin]
% of the flies killed after 15′ ([1]; 0.001% deltamethrin in acetone on glazed tiles, with or without 1% Compound A + 0.5% Compound B): 2% | % of the flies killed after 30′ [1, 7]: 18% | % of the flies killed after 1 h [1, 7]: 58% | % of the flies killed after 2 h [1, 7]: 80% | % of the flies killed after 3 h [1, 7]: 88% | % of the flies killed after 24 h [1, 7]: 92% | % Mortality after 15′ [2, 8]: 0% | % Mortality after 30′ [2, 8]: 0% | % Mortality after 1 h [2, 8]: 0% | % Mortality after 2 h [2, 8]: 20% | % Mortality after 4 h [2, 8]: 20% | % Mortality after 6 h [2, 8]: 20% | % Mortality after 1 d [2, 8]: 100% | % Mortality after 15′ [2, 9]: 40% | % Mortality after 30′ [2, 9]: 60% | % Mortality after 1 h [2, 9]: 80% | % Mortality after 2 h [2, 9]: 100% | % Mortality after 4 h [2, 9]: 100% | % Mortality after 6 h [2, 9]: 100% | % Mortality after 1 d [2, 9]: 100% | % knock down or moribund after 1 h [3, 10]: 0% | % knock down or moribund after 2 h [3, 10]: 0% | % knock down or moribund after 4 h [3, 10]: 0% | % knock down or moribund after 6 h [3, 10]: 0% | % knock down or moribund after 1 d [3, 10]: 20% | % knock down or moribund after 2 d [3, 10]: 20% | % knock down or moribund after 6 d [3, 10]: 20% | % knock down or moribund after 1 h [3, 11]: 0% | % knock down or moribund after 2 h [3, 11]: 0% | % knock down or moribund after 4 h [3, 11]: 0% | % knock down or moribund after 6 h [3, 11]: 0% | % knock down or moribund after 1 d [3, 11]: 10% | % knock down or moribund after 2 d [3, 11]: 10% | % knock down or moribund after 6 d [3, 11]: 40% | % knock down or moribund after 1 h [3, 12]: 20% | % knock down or moribund after 2 h [3, 12]: 20% | % knock down or moribund after 4 h [3, 12]: 70% | % knock down or moribund after 6 h [3, 12]: 70% | % knock down or moribund after 1 d [3, 12]: 70% | % knock down or moribund after 2 d [3, 12]: 80% | % knock down or moribund after 6 d [3, 12]: 100% | % knock down or moribund after 1 h [3, 13]: 0% | % knock down or moribund after 2 h [3, 13]: 40% | % knock down or moribund after 4 h [3, 13]: 40% | % knock down or moribund after 6 h [3, 13]: 40% | % knock down or moribund after 1 d [3, 13]: 40% | % knock down or moribund after 2 d [3, 13]: 60% | % knock down or moribund after 6 d [3, 13]: 60% | % of the flies killed after 24 h ([4]; 0.02% deltamethrin in acetone on glazed tiles, with or without 1% Compound A + 0.5% Compound B): 7%

CC[S+]([O-])c1c(C#N)nn(-c2c(Cl)cc(C(F)(F)F)cc2Cl)c1N (stereo not shown) [Ethiprole (1%)]
Average % Mortality after 1 hr ([5]; Table 60, Red Imported Fire ant, glazed tile, continuous exposure, 1 hr): 0% | Average % Mortality after 1.5 hr ([5]; Table 60, Red Imported Fire ant, glazed tile, continuous exposure, 1.5 hr): 0% | Average % Mortality after 2 hr ([5]; Table 60, Red Imported Fire ant, glazed tile, continuous exposure, 2 hr): 0% | Average % Mortality after 3 hr ([5]; Table 60, Red Imported Fire ant, glazed tile, continuous exposure, 3 hr): 10% | Average % Mortality after 30 min ([5]; Table 60, Red Imported Fire ant, glazed tile, continuous exposure, adjuvant = Compound A 1% + Compound B 0.5%, 30 min): 0% | Average % Knockdown & Mortality after 3 hr ([6]; Table 61, German cockroach (Monheim), glazed tile, continuous exposure, 3 hr): 13% | Average % Knockdown & Mortality after 5 hr ([6]; Table 61, German cockroach (Monheim), glazed tile, continuous exposure, 5 hr): 27% | Average % Knockdown & Mortality after 24 hr ([6]; Table 61, German cockroach (Monheim), glazed tile, continuous exposure, 24 hr): 73% | Average % Knockdown & Mortality after 1 hr ([6]; Table 61, German cockroach (Monheim), glazed tile, continuous exposure, adjuvant = Compound A 1% + Compound B 0.5%, 1 hr): 0%

CC[S+]([O-])c1c(C#N)nn(-c2c(Cl)cc(C(F)(F)F)cc2Cl)c1N (stereo not shown) [ethiprole]
% KD and Mortality 15′ [1, 14]: 0% | % KD and Mortality 30′ [1, 14]: 0% | % KD and Mortality 1 h [1, 14]: 0% | % KD and Mortality 2 h [1, 14]: 5% | % KD and Mortality 3 h [1, 14]: 15% | % KD and Mortality 4 h [1, 14]: 15% | % KD and Mortality 6 h [1, 14]: 25% | % KD and Mortality 24 h [1, 14]: 95% | % KD and Mortality 15′ [4, 15]: 0% | % KD and Mortality 30′ [4, 15]: 0% | % KD and Mortality 1 h [4, 15]: 0% | % KD and Mortality 2 h [4, 15]: 0% | % KD and Mortality 3 h [4, 15]: 0% | % KD and Mortality 4 h [4, 15]: 10% | % KD and Mortality 6 h [4, 15]: 15% | % KD and Mortality 24 h [4, 15]: 60% | mortality in 3 hours ([5]; ethiprole 0.01% in the absence of the adjuvant (FIG. 54)): < 5% | mortality from 5 to 25 hours ([6]; ethiprole 0.01% in the absence of the adjuvant (FIG. 55)): 5-15%

— US9028856B2, “Synergistic pesticide compositions” (priority 2008, dated 2015)
